Reference: paper PMC11009625, “Antibiotic class with potent in vivo activity targeting lipopolysaccharide synthesis in Gram-negative bacteria” (Proceedings of the National Academy of Sciences of the …, 2024)
Read-outs that look alike come from different tables or passages of the source.

Experiments:
[1] = Metabolic stability in human liver microsomes; assay type: in vitro ADME; conditions: pH 7.4
Protocol: Thermodynamic solubility was assessed by dissolving 2 to 3 mg of test compound to equilibrium in 100 mM KPO4-buffer, pH 7.4. The metabolic stability assay was performed in the presence of human and mouse liver microsomes by measurement of test compounds disappearance over time (60 min). The plasma protein binding assay, including stability estimation, was performed using the RED devices (Thermo Fisher Scientific) in the presence of human and mouse plasma. All samples from the in vitro ADME studies were quantified by liquid chromatography-triple quadrupole mass spectrometry (LC–MS/MS). The assays were performed as previously described ([36]) and the details are available in SI Appendix. Cytotoxicity was assessed by incubation of test compounds in the presence of HepG2 cells for 72 h as previously described ([37]). […]
The plate is then sealed, centrifuged and the supernatant is analysed by liquid
chromatography coupled to triple quadrupole mass spectrometry (LC-MS/MS).
Metabolic stability in the presence of human and animal liver microsomes. Metabolic stability
was determined in 0.5 mg/ml human or animal liver microsomes at a compound concentration
of 1 μM in 100 mM KPO4 buffer pH 7.4 in a total incubation volume of 500 μl. The reaction was
initiated by addition of 1 mM NADPH. At various incubation times, i.e. at 0, 5, 10, 20, 40 and 60
min, a sample was withdrawn from the incubation and the reaction was terminated by addition
of cold acetonitrile with warfarin as an internal standard. […]
Liquid chromatography coupled to triple quadrupole mass spectrometry (LC-MS/MS). The test
compounds were optimized on a Waters Acquity UPLC XEVO TQ-S micro system (Waters Corp.)
operating in multiple reaction monitoring (MRM) mode with positive or negative electrospray
ionization. Compounds were optimized by using the QuanOptimize software (Waters Corp.).
For chromatographic separation, a C18 BEH 1.7 µm column was used, with a general gradient of
1% to 90% of mobile phase B over a total running time of 2 min. Mobile phase A consisted of
5% acetonitrile and 0.1% formic acid in purified water, and mobile phase B of 0.1% formic acid
in 100% acetonitrile. The flow rate was set to 0.5 ml/min and 5 µL of the sample was injected.

[2] = system: Staphylococcus aureus ATCC 29213; test: MIC, S. aureus; assay type: cell-based
Protocol: Minimum inhibitory concentration (MIC) values were determined according to the Clinical Laboratory Standards Institute guidelines. Frequency of resistance was determined by plating ~5 × 10^8 bacterial cells on agar-solidified media plates containing test compound at concentrations corresponding to four times the measured solid-media MIC of the strains. Colonies were counted after 24 h, restreaked onto media containing the same concentration of compound, and the MIC remeasured against the assayed compound. Genomic DNA from isolated clones was sequenced by paired-end sequencing on an Illumina MiSeq device. Complete experimental details available in SI Appendix.
Cytotoxicity. The cytotoxicity assay was performed in HepG2 cells as previously described(10) […]
Minimum inhibitory concentration (MIC) determination. Broth microdilution and agar dilution MIC assays were conducted according to CLSI guidelines (M07-2012). Appropriate inoculation suspension density was assessed using a Sensititre Nephelometer with a Sensititre 0.5 McFarland Standard. Serum MICs were conducted in 50% heat-inactivated pooled human serum (Sigma-Aldrich). Serum was heated to 56 °C for one hour and then filtered using a 0.2 µm […]
Hemolysis. Hemolysis was conducted as previously described (11).
Frequency of Resistance. Frequency of resistance was assessed by spread plating between […] cfu of a freshly-grown culture of the strain of interest on plates containing a concentration of compound corresponding to 4 times the MIC of the strain (as determined by agar-dilution MIC). […] The frequency of resistance was determined by dividing the number of colonies obtained on the selective plates after 24 hours of growth by the calculated total population plated. […]
Whole-genome sequencing and data analysis. […] Whole-genome sequencing data was analyzed using CLC Genomics Workbench Version 11. To determine the genotype of MDR strains from the ENABLE strain collection, de novo assembled contigs were analyzed using ResFinder (12–14) […]

[3] = ATCC29213, read-out: MIC S. aureus ATCC 29213

| SMILES | microsomal CLint at 1 µM [1] [µL/min/mg] | MIC [2, 3] [µg/mL] | MIC ([2]; ATCC29213, WT, read-out: MIC S. aureus ATCC 29213) [µg/mL] |
| --- | --- | --- | --- |
| CN(c1ccc(CNCCN)cc1C(=O)Nc1ccc(S(=O)(=O)N2CCN(c3cc(Cl)cc(Cl)c3)CC2)cc1)S(C)(=O)=O [EBL-3025] | 42.2 |  |  |
| Cc1cc(C#N)nc(N2CCN(S(=O)(=O)c3ccc(NC(=O)c4cc(CN5CC(CN)C5)ccc4N(C)S(C)(=O)=O)cc3)CC2)n1 [EBL-3647] | 3.1 | > 64 |  |
| Cc1cc(C#N)nc(N2CCN(S(=O)(=O)c3ccc(NC(=O)c4cc(CNCCCN)ccc4N(C)S(C)(=O)=O)cc3)CC2)n1.Cl.Cl [EBL-3599] | < 5 |  | > 64 |
| Cc1cc(C#N)nc(N2CCN(S(=O)(=O)c3ccc(NC(=O)c4ccccc4N(C)S(C)(=O)=O)cc3)CC2)n1 [EBL-3339] | 551 |  |  |
| CN(c1ccccc1C(=O)Nc1ccc(S(=O)(=O)N2CCN(c3cccc(C(F)(F)F)c3)CC2)cc1)S(C)(=O)=O [JEDI-1444] | 209 | > 64 |  |
